For one series, the system named is PANC-1 pERK. The series is described as follows: Phospho-ERK 1/2 assay. It is filed as cell-based. Particulars: PANC-1 cells, compound incubation 3 hours, pERK normalised with GAPDH antibody staining. Here is the method:
Allow PNAC-1 cell growth in a T75 flask in DMEM and 10% 1 fetal calf serum (FCS; Gibco®), using standard tissue culture procedures until ~80% confluency is achieved. Day 1, seed 6000 cells/well in 384 well plate and incubate at 37° C., 5% CO2. Add diluted compound by Echo 550, final DMSO is 0.5%, incubate cells at 37° C., 5% CO2 for 3 hours. Then, remove medium and fix cells with 3.7% formaldehyde in PBS (PFA) by Apricot. Wash with PBS once. Permeabilize cells with cold 100% methanol and repeat wash once with PBS once. Add Li-Cor blocking buffer to each well and incubate 1.5 hours at RT. Remove blocking buffer and add primary antibody mixture (rabbit anti pERK, mouse anti GAPDH). Incubate at 4° C. overnight. Day 2, wash with PBST (Tween-20 in PBS) with total 3 times and then add secondary antibody mixture (goat anti rabbit 800CW (1:800 dilution in the combined solution) and goat anti mouse 680RD (1:800 dilution in the combined solution)), incubate for 60 minutes at RT away from light. Repeat washing with PBST 3 times. After final wash, centrifuge plate up-side-down at 1000 rpm to remove wash solution completely from wells. Before plate scanning, clean the bottom plate surface and the Odyssey© Imager scanning bed (if applicable) with moist, lint-free tissue to avoid any obstructions during scanning. Scan plate with detection in both 700 and 800 nm channels.

Series [1] can be described thus: In vivo oral bioavailability assay (mouse PK). Particulars: Balb/c mice female, IV bolus 1 mg/kg. Here is the method: In Vivo Oral Bioavailability Assay (Mouse PK):
Single dose following IV bolus (1 mg/kg, 0.2 mg/mL in 1% DMSO, 99% SBE-β-CD (10% w/v) in water) and oral gavage (10 mg/kg~60 mg/kg) administration of test compound in Balb/c Mice female. The blood samples were collected at 2 min, 5 min, 10 min, 30 min, 1 hr, 2 hr, 4 hr, 8 hr and 24 hr (additional 32 hr and 48 hr for MRTX1133) after IV bolus, at 15 min, 30 min, 1 hr, 1.5 hr, 2 hr, 3 hr, 4 hr, 8 hr and 24 hr (additional 32 hr and 48 hr for MRTX1133) after PO administration. The plasma concentrations of compounds were determined with UPLC-MS/MS.

The target in series [2] is T1, P-glycoprotein (Pgp, MDR1) (Homo sapiens, UniProt P08183).
T1 construct: expressed in transfected cells; host or cells: MDCK-MDR1 cells
T1 sequence (P08183 whole entry): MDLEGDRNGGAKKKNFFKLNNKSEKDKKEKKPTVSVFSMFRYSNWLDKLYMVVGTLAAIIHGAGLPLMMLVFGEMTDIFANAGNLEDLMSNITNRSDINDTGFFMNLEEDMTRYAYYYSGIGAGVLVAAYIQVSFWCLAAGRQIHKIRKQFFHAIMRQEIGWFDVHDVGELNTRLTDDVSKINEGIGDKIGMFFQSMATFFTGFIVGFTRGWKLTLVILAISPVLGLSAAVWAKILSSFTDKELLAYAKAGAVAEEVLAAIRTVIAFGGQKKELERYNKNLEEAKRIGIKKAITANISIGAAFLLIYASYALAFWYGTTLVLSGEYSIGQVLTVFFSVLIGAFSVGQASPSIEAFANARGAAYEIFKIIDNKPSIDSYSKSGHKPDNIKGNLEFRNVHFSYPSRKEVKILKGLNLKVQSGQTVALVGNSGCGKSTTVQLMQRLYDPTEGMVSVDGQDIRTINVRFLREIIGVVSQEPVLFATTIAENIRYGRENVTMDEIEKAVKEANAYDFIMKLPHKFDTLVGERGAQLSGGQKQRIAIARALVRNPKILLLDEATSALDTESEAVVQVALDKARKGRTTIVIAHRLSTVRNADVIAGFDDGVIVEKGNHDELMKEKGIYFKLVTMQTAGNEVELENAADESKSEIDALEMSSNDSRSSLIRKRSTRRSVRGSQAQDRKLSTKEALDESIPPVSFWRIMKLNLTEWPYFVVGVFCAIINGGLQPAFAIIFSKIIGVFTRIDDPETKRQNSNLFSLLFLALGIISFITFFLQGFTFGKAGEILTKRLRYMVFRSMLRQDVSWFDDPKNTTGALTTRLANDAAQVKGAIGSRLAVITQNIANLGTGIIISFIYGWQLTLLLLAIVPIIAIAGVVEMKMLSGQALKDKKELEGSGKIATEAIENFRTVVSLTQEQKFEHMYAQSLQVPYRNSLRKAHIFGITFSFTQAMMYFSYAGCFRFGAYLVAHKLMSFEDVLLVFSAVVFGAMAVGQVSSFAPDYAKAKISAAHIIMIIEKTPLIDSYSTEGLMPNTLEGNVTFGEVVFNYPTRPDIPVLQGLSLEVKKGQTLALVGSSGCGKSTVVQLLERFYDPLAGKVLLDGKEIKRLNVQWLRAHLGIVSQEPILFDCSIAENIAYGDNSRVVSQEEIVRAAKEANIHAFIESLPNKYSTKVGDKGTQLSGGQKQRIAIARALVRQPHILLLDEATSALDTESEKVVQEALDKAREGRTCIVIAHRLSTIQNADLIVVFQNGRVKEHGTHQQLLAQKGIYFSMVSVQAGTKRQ
Briefly: MDCK-MDR1 Pgp assessment. Particulars: dog, MDCK-MDR1 cells, read-out: Pgp Efflux Ratio (Pexact). It is filed as in vitro ADME. Here is the method:
Efflux transport mediated by P-glycoprotein (Pgp) was assessed by MDCK-MDR1 cells. The final concentrations of test compounds and control compound were at 1 μM. The multi-well insert plate was incubated at 37 ^9C for 2 hours. In order to reliably measure passive permeability coefficients, Pexact was reported, which automatically corrects for loss of compound.

What is called IC50 is the midpoint of a concentration-inhibition curve. High values mean lower potency, low ones higher potency. The term bioavailability denotes the share of a dose that reaches the circulation, judged against a reference dose that is usually intravenous.

Compound `C#Cc1c(F)ccc2cccc(-c3nc4c5c(nc(=O)n(C[C@@]67CCCN6CC(=C)C7)c5c3F)N3C[C@H]5CC[C@H](N5)[C@H]3[C@H](C)O4)c12` (single isomer, unassigned) [Example 200a] yielded an IC50 in the series with PANC-1 pERK (Homo sapiens, PANC-1, 3 h) of 12 nM. Besides, the “Fa*Fg (%)” value in series [1] (oral dose 10 mpk) is given as 24%. In series [1] (mouse, plasma, oral dose 10 mpk), this compound yielded a bioavailability of 15.8%. With `C#Cc1c(F)ccc2cccc(-c3nc4c5c(nc(=O)n(CC(C)(CO)N(C)C)c5c3F)N3C[C@H]5CC[C@H](N5)[C@H]3[C@H](C)O4)c12` (single isomer, unassigned) [Example 365a], in the series on PANC-1 pERK, the IC50 amounted to 6 nM. Further, the efflux ratio at 2 h, 1 μM in series [2] was 8.4.

For the compound `CCc1c(F)ccc2cc(O)cc(-c3nc4c5c(nc(=O)n(CC(C)(CO)N(C)C)c5c3F)N3C[C@H]5CC[C@H](N5)[C@H]3[C@H](C)O4)c12` (single isomer, unassigned) [Example 373a], in the series with PANC-1 pERK, it took 6.4 nM to reach half-maximal inhibition (IC50). Further, in series [2], the efflux ratio at 2 h, 1 μM amounted to 12.5. As for `CCc1c(F)ccc2cc(O)cc(-c3nc4c5c(nc(=O)n(C[C@@]67CCCN6C[C@H](F)C7)c5c3F)N3C[C@@]5(C)CC[C@H](N5)[C@H]3[C@H](C)O4)c12` [Example 361, (5S,5aS,6S,9R)-2-(8-ethyl-7-fluoro-3-hydroxynaphthalen-1-yl)-1-fluoro-13-(((2R,7aS)-2-fluorotetrahydro-1H-pyrrolizin-7a(5H)-yl)methyl)-5,9-dimethyl-5a,6,7,8,9,10-hexahydro-5H-4-oxa-3,10a,11,13,14-pentaaza-6,9-methanonaphtho[1,8-ab]heptalen-12(13H)-one], the IC50 in the series with PANC-1 pERK (Homo sapiens, PANC-1, 3 h) amounted to 43 nM.

In the series on PANC-1 pERK (Homo sapiens, PANC-1, 3 h), `C=C1CN2CCC[C@@]2(Cn2c(=O)nc3c4c(nc(-c5cc(O)cc6ccc(F)c(CC)c56)c(F)c42)O[C@@H](C)[C@@H]2[C@@H]4CC[C@](C)(CN32)N4)C1` [Example 362, (5S,5aS,6S,9R)-2-(8-ethyl-7-fluoro-3-hydroxynaphthalen-1-yl)-1-fluoro-5,9-dimethyl-13-(((S)-2-methylenetetrahydro-1H-pyrrolizin-7a(5H)-yl)methyl)-5a,6,7,8,9,10-hexahydro-5H-4-oxa-3,10a,11,13,14-pentaaza-6,9-methanonaphtho[1,8-ab]heptalen-12(13H)-one] returned a 50% inhibitory concentration (IC50) of 221 nM. For the compound `C=C1CN2CCC[C@@]2(Cn2c(=O)nc3c4c(nc(-c5cc(O)cc6ccc(F)c(Cl)c56)c(F)c42)O[C@@H](C)[C@@H]2[C@@H]4CC[C@H](CN32)N4)C1` [Example 363, (5S,5aS,6S,9R)-2-(8-chloro-7-fluoro-3-hydroxynaphthalen-1-yl)-1-fluoro-5-methyl-13-(((S)-2-methylenetetrahydro-1H-pyrrolizin-7a(5H)-yl)methyl)-5a,6,7,8,9,10-hexahydro-5H-4-oxa-3,10a,11,13,14-pentaaza-6,9-methanonaphtho[1,8-ab]heptalen-12(13H)-one], in the series with PANC-1 pERK (Homo sapiens, PANC-1, 3 h), the IC50 worked out at 88 nM. Still for that read-out and setting: to `C#Cc1c(F)ccc2cccc(-c3nc4c5c(nc(=O)n(C[C@H]6CCN6C)c5c3F)N3C[C@H]5CC[C@H](N5)[C@H]3[C@H](C)O4)c12` [Example 366, (8S,8aS,9S,12R)-5-(8-ethynyl-7-fluoronaphthalen-1-yl)-4-fluoro-8-methyl-3-(((R)-1-methylazetidin-2-yl)methyl)-8a,9,10,11,12,13-hexahydro-8H-7-oxa-1,3,6,13a,14-pentaaza-9,12-methanonaphtho[1,8-ab]heptalen-2(3H)-one] belongs 272 nM; to `C#Cc1c(F)ccc2cccc(-c3nc4c5c(nc(=O)n(C[C@@]6(C)CCCN6C)c5c3F)N3C[C@H]5CC[C@H](N5)[C@H]3[C@H](C)O4)c12` [Example 367, (8S,8aS,9S,12R)-3-(((R)-1,2-dimethylpyrrolidin-2-yl)methyl)-5-(8-ethynyl-7-fluoronaphthalen-1-yl)-4-fluoro-8-methyl-8a,9,10,11,12,13-hexahydro-8H-7-oxa-1,3,6,13a,14-pentaaza-9,12-methanonaphtho[1,8-ab]heptalen-2(3H)-one], 234 nM; to `CCc1c(F)ccc2cc(O)cc(-c3nc4c5c(nc(=O)n(C[C@H]6CCN6C)c5c3F)N3C[C@H]5CC[C@H](N5)[C@H]3[C@H](C)O4)c12` [Example 369, (8S,8aS,9S,12R)-5-(8-ethyl-7-fluoro-3-hydroxynaphthalen-1-yl)-4-fluoro-8-methyl-3-(((R)-1-methylazetidin-2-yl)methyl)-8a,9,10,11,12,13-hexahydro-8H-7-oxa-1,3,6,13a,14-pentaaza-9,12-methanonaphtho[1,8-ab]heptalen-2(3H)-one], 400 nM. `C#Cc1c(F)ccc2cccc(-c3nc4c5c(nc(=O)n(C(C)[C@H]6CCCN6C)c5c3F)N3C[C@H]5CC[C@H](N5)[C@H]3[C@H](C)O4)c12` (stereo partly drawn) [Example 370, (8S,8aS,9S,12R)-5-(8-ethynyl-7-fluoronaphthalen-1-yl)-4-fluoro-8-methyl-3-(1-((R)-1-methylpyrrolidin-2-yl)ethyl)-8a,9,10,11,12,13-hexahydro-8H-7-oxa-1,3,6,13a,14-pentaaza-9,12-methanonaphtho[1,8-ab]heptalen-2(3H)-one] came in with an IC50 in the series on PANC-1 pERK (Homo sapiens, PANC-1, 3 h) of 271 nM.

`C#Cc1c(F)ccc2cc(O)cc(-c3ncc4c(N5CC6CCC(C5)N6)nc(OC[C@@]56CCCN5C[C@H](F)C6)nc4c3F)c12` [MRTX1133, reference compound]: the “Fa*Fg (%)” value in series [1] (oral dose 30 mpk) was 0.95%.

These data come from patent US20260250301A1, “KRAS G12D INHIBITORS AND USES THEREOF” (SUZHOU ZANRONG PHARMA LIMITED, priority 2023, published 2026).
